Experimental data published in patent US20100298141A1, “SUBSTITUTED PYRIDINE N-OXIDE HERBICIDES” (E. I. DU PONT DE NEMOURS AND COMPANY, priority 2007, published 2010).

Experiments:
canarygrass = experiment: Test C postemergence test; format: in vivo, Phalaris minor; settings: for Plant response rating, Canarygrass: scale 0 to 100, 0 no effect, 100 complete control
How it was run: (§1)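 Postemergence sprays of formulated test chemicals on plants 2 to 18 cm tall (1- to 4-leaf stage). Greenhouse hold for 13 to 15 days, then visual rating of each species against untreated controls; dash means no test result.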

wild oat = experiment: Test D preemergence test; format: in vivo, Avena fatua; settings: scale 0 to 100
Description: Seeds of plant species selected from annual bluegrass (Poa annua), blackgrass (Alopecurus myosuroides), downy bromegrass (Bromus tectorum), field violet (Viola arvensis), green foxtail (Setaria viridis), Italian ryegrass (Lolium multiflorum), littleseed canarygrass (Phalaris minor), spring wheat (Triticum aestivum), wild oat (Avena fatua), […]), winter barley (Hordeum vulgare), and winter wheat (Triticum aestivum) were planted and treated preemergence with test chemicals formulated in a non-phytotoxic solvent mixture which included a surfactant. […] A dash (-) response means no test result.

barnyardgrass = experiment: Test G preemergence test; format: in vivo, Echinochloa crus-galli; settings: scale 0 to 100
yellow nutsedge = experiment: Test G preemergence test; format: in vivo, Cyperus esculentus; settings: scale 0 to 100
Russian thistle = experiment: Test F preemergence test; format: in vivo, Salsola kali; settings: scale 0 to 100
Description: Seeds of plant species selected from bermudagrass (Cynodon dactylon), Surinam grass (Brachiaria decumbens), large crabgrass (Digitaria sanguinalis), green foxtail (Setaria viridis), goosegrass (Eleusine indica), johnsongrass (Sorghum halepense), kochia (Kochia scoparia), pitted morningglory (Ipomoea lacunosa), purple nutsedge (Cyperus rotundus), common ragweed (Ambrosia elation), mustard (Brassica nigra), guineagrass (Panicum maximum), […] (Paspalum dilatatum), barnyardgrass (Echinochloa crus-galli), southern sandbur (Cenchrus echinatus), common sowthistle (Sonchus oleraceous), prickly […] spinosa), Italian ryegrass (Lolium multiflorum), common purslane (Portulaca oleracea), broadleaf signalgrass (Brachiaria platyphylla), common groundsel (Senecio vulgaris), common chickweed (Stellaria media), Virginia dayflower (Commelina virginica), annual bluegrass (Poa annua), naked crabgrass (Digitaria nuda), […] cochinchinensis), quackgrass (Elytrigia repens), Canada horseweed (Conyza canadensis), field bindweed (Convolvulus arvensis), […] (Bidens bipinnata), common mallow (Malva sylvestris), Russian thistle (Salsola kali), and sugarcane (Saccharum officinarum) were planted and treated preemergence with test chemicals formulated in a non-phytotoxic solvent mixture which included a surfactant. At a different time, sugarcane was treated with postemergence applications of some of the test chemicals formulated in the same manner. Plants were approximately 3- to 4-leaf stage for the postemergence treatments. Treated plants and controls were maintained in a greenhouse for 14 to 21 days, after which time all species were compared to controls and visually evaluated. […] A dash (-) response means no test result.

guineagrass = experiment: Test F preemergence test; format: in vivo, Panicum maximum; settings: scale 0 to 100
How it was run: (§2)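 Greenhouse screen: test chemical in surfactant-containing non-phytotoxic solvent applied preemergence to sown seeds or postemergence to sugarcane plants; after 14 to 21 days each species scored visually versus controls.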

chickweed = experiment: Test C postemergence test; format: in vivo, Stellaria media; settings: for Plant response rating, Chickweed: scale 0 to 100, 0 no effect, 100 complete control
How it was run: as §1

common chickweed = experiment: Test F preemergence test; format: in vivo, Stellaria media; settings: scale 0 to 100; for Chickweed plant response rating: 62 g ai/ha
How it was run: as §2

common sowthistle = experiment: Test F preemergence test; format: in vivo, Sonchus oleraceous; settings: scale 0 to 100
How it was run: as §2

windgrass = experiment: Test C pre-/postemergence test; format: in vivo, Apera spica-venti; settings: Postemergence; for Plant response rating, Windgrass: scale 0 to 100, 0 no effect, 100 complete control
winter barley = experiment: Test C postemergence test; format: in vivo, Hordeum vulgare; settings: for Plant response rating, Barley: scale 0 to 100, 0 no effect, 100 complete control
How it was run: as §1

spanishneedles = experiment: Test F preemergence test; format: in vivo, Bidens bipinnata; settings: scale 0 to 100
How it was run: as §2

Cc1cc[n+]([O-])c([S+]([O-])Cc2c(C(F)(F)F)nn(C)c2OC(F)F)c1 (centres unmarked) [Compound 1]
Plant response rating (0 to 100), Canarygrass (canarygrass; 31 g ai/ha): 0 | Plant response rating, Canarygrass (canarygrass; 62 g ai/ha): 0 | Plant response rating, Canarygrass (canarygrass; 125 g ai/ha): 0 | Plant response rating, Canarygrass (canarygrass; 250 g ai/ha): 0 | Plant response rating, Oat, Wild (wild oat; 31 g ai/ha): 0 | Plant response rating, Oat, Wild (wild oat; 62 g ai/ha): 0 | Plant response rating, Oat, Wild (wild oat; 125 g ai/ha): 20 | Plant response rating, Oat, Wild (wild oat; 250 g ai/ha): 40 | Plant response rating, Barnyardgrass (barnyardgrass; 31 g ai/ha): 20 | Plant response rating, Barnyardgrass (barnyardgrass; 62 g ai/ha): 65 | Plant response rating, Barnyardgrass (barnyardgrass; 125 g ai/ha): 100 | Plant response rating, Barnyardgrass (barnyardgrass; 250 g ai/ha): 100 | Plant response rating, Nutsedge, Yellow (yellow nutsedge; 31 g ai/ha): 0 | Plant response rating, Nutsedge, Yellow (yellow nutsedge; 62 g ai/ha): 35 | Plant response rating, Nutsedge, Yellow (yellow nutsedge; 125 g ai/ha): 75 | Plant response rating, Nutsedge, Yellow (yellow nutsedge; 250 g ai/ha): 40 | Plant response rating, Russian Thistle (Russian thistle; 8 g ai/ha, preemergence): 0 | Plant response rating, Russian Thistle (Russian thistle; Preemergence, 16 g ai/ha): 0 | Plant response rating, Russian Thistle (Russian thistle; Preemergence, 31 g ai/ha): 0 | Plant response rating, Guineagrass (guineagrass; 8 g ai/ha, preemergence): 65 | Guineagrass plant response rating (guineagrass; 62 g ai/ha, Preemergence): 100 | Plant response rating, Guineagrass (guineagrass; Preemergence, 16 g ai/ha): 80 | Plant response rating, Guineagrass (guineagrass; Preemergence, 31 g ai/ha): 80 | Plant response rating (0 to 100), Chickweed (chickweed; 31 g ai/ha): 50 | Plant response rating, Chickweed (chickweed; 62 g ai/ha): 65 | Plant response rating, Chickweed (chickweed; 125 g ai/ha): 90 | Plant response rating, Chickweed (chickweed; 250 g ai/ha): 90 | Plant response rating, Chickweed (common chickweed; 8 g ai/ha, preemergence): 40 | Chickweed plant response rating (common chickweed; Preemergence): 100 | Plant response rating, Chickweed (common chickweed; Preemergence, 16 g ai/ha): 60 | Plant response rating, Chickweed (common chickweed; Preemergence, 31 g ai/ha): 98 | Plant response rating, Sowthistle (common sowthistle; 8 g ai/ha, preemergence): 0 | Plant response rating, Sowthistle (common sowthistle; 16 g ai/ha, preemergence): 0 | Sowthistle plant response rating (common sowthistle; 62 g ai/ha, Preemergence): 70 | Plant response rating, Sowthistle (common sowthistle; Preemergence, 31 g ai/ha): 30 | Plant response rating (0 to 100), Windgrass (windgrass; 31 g ai/ha): 0 | Plant response rating (0 to 100), Windgrass (windgrass; 62 g ai/ha): 10 | Plant response rating, Windgrass (windgrass; 125 g ai/ha): 60 | Plant response rating, Windgrass (windgrass; 250 g ai/ha): 85 | Plant response rating (0 to 100), Barley (winter barley; 31 g ai/ha): 0 | Plant response rating, Barley (winter barley; 62 g ai/ha): 0 | Plant response rating, Barley (winter barley; 125 g ai/ha): 0 | Plant response rating, Barley (winter barley; 250 g ai/ha): 0

Cn1nc(C(F)(F)F)c(CS(=O)(=O)c2cccc[n+]2[O-])c1OC(F)F [Compound 4]
Plant response rating, Oat, Wild (wild oat; 31 g ai/ha): 25 | Plant response rating, Oat, Wild (wild oat; 62 g ai/ha): 30 | Plant response rating, Oat, Wild (wild oat; 125 g ai/ha): 30 | Plant response rating, Oat, Wild (wild oat; 250 g ai/ha): 35 | Plant response rating, Barnyardgrass (barnyardgrass; 31 g ai/ha): 70 | Plant response rating, Barnyardgrass (barnyardgrass; 62 g ai/ha): 100 | Plant response rating, Barnyardgrass (barnyardgrass; 125 g ai/ha): 100 | Plant response rating, Barnyardgrass (barnyardgrass; 250 g ai/ha): 100 | Plant response rating, Nutsedge, Yellow (yellow nutsedge; 31 g ai/ha): 0 | Plant response rating, Nutsedge, Yellow (yellow nutsedge; 62 g ai/ha): 0 | Plant response rating, Nutsedge, Yellow (yellow nutsedge; 125 g ai/ha): 15 | Plant response rating, Nutsedge, Yellow (yellow nutsedge; 250 g ai/ha): 40 | Plant response rating, Russian Thistle (Russian thistle; 8 g ai/ha, preemergence): 0 | Russian Thistle plant response rating (Russian thistle; 62 g ai/ha, Preemergence): 100 | Plant response rating, Russian Thistle (Russian thistle; Preemergence, 16 g ai/ha): 0 | Plant response rating, Russian Thistle (Russian thistle; Preemergence, 31 g ai/ha): 100 | Plant response rating, Guineagrass (guineagrass; 8 g ai/ha, preemergence): 50 | Guineagrass plant response rating (guineagrass; 62 g ai/ha, Preemergence): 100 | Plant response rating, Guineagrass (guineagrass; Preemergence, 16 g ai/ha): 80 | Plant response rating, Guineagrass (guineagrass; Preemergence, 31 g ai/ha): 100 | Plant response rating, Chickweed (common chickweed; 8 g ai/ha, preemergence): 60 | Chickweed plant response rating (common chickweed; Preemergence): 100 | Plant response rating, Chickweed (common chickweed; Preemergence, 16 g ai/ha): 100 | Plant response rating, Chickweed (common chickweed; Preemergence, 31 g ai/ha): 100

Cn1nc(C(F)(F)F)c(CS(=O)(=O)c2ccc(Cl)c[n+]2[O-])c1OC(F)F [Compound 7]
Plant response rating, Oat, Wild (wild oat; 31 g ai/ha): 0 | Plant response rating, Oat, Wild (wild oat; 62 g ai/ha): 0 | Plant response rating, Oat, Wild (wild oat; 125 g ai/ha): 0 | Plant response rating, Oat, Wild (wild oat; 250 g ai/ha): 0 | Plant response rating, Barnyardgrass (barnyardgrass; 31 g ai/ha): 0 | Plant response rating, Barnyardgrass (barnyardgrass; 62 g ai/ha): 15 | Plant response rating, Barnyardgrass (barnyardgrass; 125 g ai/ha): 60 | Plant response rating, Barnyardgrass (barnyardgrass; 250 g ai/ha): 100 | Plant response rating, Nutsedge, Yellow (yellow nutsedge; 31 g ai/ha): 0 | Plant response rating, Nutsedge, Yellow (yellow nutsedge; 62 g ai/ha): 0 | Plant response rating, Nutsedge, Yellow (yellow nutsedge; 125 g ai/ha): 0 | Plant response rating, Nutsedge, Yellow (yellow nutsedge; 250 g ai/ha): 0

Cc1cc[n+]([O-])c(S(=O)(=O)C(Cl)c2c(C(F)(F)F)nn(C)c2OCC(F)(F)F)c1 (racemic) [Compound 37]
Plant response rating, Russian Thistle (Russian thistle; 16 g ai/ha, preemergence): 0 | Plant response rating, Russian Thistle (Russian thistle; Preemergence, 31 g ai/ha): 0 | Plant response rating, Guineagrass (guineagrass; 16 g ai/ha, preemergence): 65 | Guineagrass plant response rating (guineagrass; 62 g ai/ha, Preemergence): 85 | Guineagrass plant response rating (guineagrass; 125 g ai/ha, preemergence): 100 | Plant response rating, Guineagrass (guineagrass; Preemergence, 31 g ai/ha): 75 | Plant response rating, Spanishneedles (spanishneedles; 16 g ai/ha, preemergence): 0 | Spanishneedles plant response rating (spanishneedles; 125 g ai/ha, preemergence): 0 | Plant response rating, Spanishneedles (spanishneedles; Preemergence, 62 g ai/ha): 0 | Plant response rating, Spanishneedles (spanishneedles; Preemergence, 31 g ai/ha): 0
